Laboratory results published in ChEMBL document CHEMBL5260858, “Targeting mycobacterial membranes and membrane proteins: Progress and limitations” (Bioorg Med Chem, 2023).
Values after ≈ are worked out from the molar mass of the structure shown.

Columns and labels:
[1] = tested on: Mycobacterium tuberculosis; test: Antitubercular activity against Mycobacterium tuberculosis Erdman assessed as bacterial growth inhibition incubated for 1 week by microplate alamar blue assay; format: functional, organism-based; settings: 168 h
[2] = tested on: Mycobacterium tuberculosis; test: Antitubercular activity against Mycobacterium tuberculosis H37Rv assessed as bacterial growth inhibition incubated for 7 days by microplate alamar blue assay; format: functional; settings: 168 h, time 7 day
[3] = tested on: Mycobacterium tuberculosis; test: Antitubercular activity against Mycobacterium tuberculosis H37Rv assessed as bacterial growth inhibition incubated for 7 days by resazurin reduction microplate assay; format: functional; settings: 168 h, time 7 day
[4] = tested on: Mycobacterium tuberculosis; test: Antitubercular activity against Mycobacterium tuberculosis H37Rv infected in BALB/c mouse assessed as reduction in bacterial load at 150 mg/kg, po for 10 days by CFU analysis; format: functional; settings: time 10 day
[5] = tested on: Mycobacterium tuberculosis; test: Antitubercular activity against Mycobacterium tuberculosis CDC1551 assessed as bacterial growth inhibition for 6 days by spectroscopic analysis; format: functional, organism-based; settings: CDC1551, 144 h
[6] = tested on: Mycobacterium tuberculosis; test: Antitubercular activity against Mycobacterium tuberculosis CDC1551 infected in mouse bone marrow derived macrophage assessed as bacterial growth inhibition for 2 days by spectroscopic analysis; format: functional; settings: CDC1551, 48 h, time 2 day
[7] = tested on: Mycobacterium tuberculosis; test: Antimycobacterial activity against Mycobacterium tuberculosis H37Rv assessed as bacterial growth inhibition incubated for 7 days by microplate alamar blue assay; format: functional; settings: 168 h, time 7 day
[8] = tested on: Mycobacterium tuberculosis; test: Antimycobacterial activity against Mycobacterium tuberculosis Erdman assessed as bacterial growth inhibition incubated for 7 days by microplate alamar blue assay; format: functional; settings: 168 h, time 7 day
Mycobacterium avium [9] = test: Antimycobacterial activity against Mycobacterium avium assessed as bacterial growth inhibition incubated for 7 days by microplate alamar blue assay; format: functional; settings: 168 h, time 7 day
[10] = tested on: Mycobacterium tuberculosis; test: In vivo antimycobacterial activity against Mycobacterium tuberculosis Erdman infected in Balb/c mouse assessed as reduction in log10 CFU in lungs at 15 mg/kg,po for 4 weeks […]; format: functional
[11] = tested on: Mycolicibacterium smegmatis; test: Antitubercular activity against Mycobacterium smegmatis assessed as bacterial growth inhibition; format: functional
[12] = tested on: Mycobacterium tuberculosis; test: In vivo antimycobacterial activity against Mycobacterium tuberculosis H37Rv infected in BALB/c mouse assessed as reduction in bacterial load in lung at 50 mg/kg, po and measured after 3 weeks; format: functional
[13] = tested on: Mycobacterium tuberculosis; test: In vivo antimycobacterial activity against Mycobacterium tuberculosis H37Rv infected in BALB/c mouse assessed as reduction in bacterial load in lung at 100 mg/kg, po and measured after 3 weeks; format: functional
[14] = tested on: Mycobacterium tuberculosis; test: In vivo antimycobacterial activity against Mycobacterium tuberculosis H37Rv infected in BALB/c mouse assessed as reduction in bacterial load in lung at 200 mg/kg, po and measured after 4 weeks; format: functional
[15] = tested on: Mycolicibacterium smegmatis; test: Antitubercular activity against Mycobacterium smegmatis ATCC 607 assessed as zone of inhibition incubated 30 hrs by Kirby-Bauer disc diffusion assay; format: functional
[16] = tested on: Mycobacterium tuberculosis; test: In vivo antimycobacterial activity against Mycobacterium tuberculosis H37Rv infected in C57BL/6 mouse assessed as reduction in bacterial load in lung at 10 mg/kg, po and measured after 10 days by CFU analysis; format: functional; settings: time 10 day
[17] = tested on: Mycobacterium tuberculosis; test: In vivo antimycobacterial activity against Mycobacterium tuberculosis H37Rv infected in C57BL/6 mouse assessed as reduction in bacterial load in lung at 30 mg/kg, po and measured after 10 days by CFU analysis; format: functional; settings: time 10 day
[18] = tested on: Mycobacterium tuberculosis; test: In vivo antimycobacterial activity against Mycobacterium tuberculosis H37Rv infected in C57BL/6 mouse assessed as reduction in bacterial load in spleen at 10 mg/kg, po and measured after 10 days by CFU analysis; format: functional; settings: time 10 day
[19] = tested on: Mycobacterium tuberculosis; test: In vivo antimycobacterial activity against Mycobacterium tuberculosis H37Rv infected in C57BL/6 mouse assessed as reduction in bacterial load in spleen at 30 mg/kg, po and measured after 10 days by CFU analysis; format: functional; settings: time 10 day
[20] = tested on: Mycobacterium tuberculosis; test: Antitubercular activity against Mycobacterium tuberculosis H37Rv assessed as bacterial growth inhibition; format: functional
Mycobacterium avium [21] = test: Antitubercular activity against Mycobacterium avium assessed as bacterial growth inhibition; format: functional
[22] = tested on: Mycobacterium tuberculosis; test: Antitubercular activity against Mycobacterium tuberculosis Erdman assessed as bacterial growth inhibition; format: functional
[23] = tested on: Mycobacterium tuberculosis; test: Antitubercular activity against Mycobacterium tuberculosis H37Rv assessed as bacterial growth inhibition in presence of clavulanate by checkerboard assay; format: functional
[24] = tested on: Mycobacterium tuberculosis; test: Antitubercular activity against Mycobacterium tuberculosis H37Rv assessed as bacterial growth inhibition by checkerboard assay; format: functional
[25] = tested on: Mycobacterium tuberculosis; test: Antitubercular activity against Mycobacterium tuberculosis H37Rv ATCC 27294 infected in african green monkey Vero cells assessed as bacterial growth inhibition incubated for 6 days by microplate alamar blue assay; format: functional; settings: H37Rv ATCC 27294, 144 h, time 6 day
[26] = tested on: Mycobacterium tuberculosis; test: Antitubercular activity against Mycobacterium tuberculosis Erdman ATCC 35801 infected in RAW264.7 cells assessed as inhibition of intracellular bacterial growth incubated for 6 days by microplate alamar blue assay; format: functional; parameters: scale not given: the % may be the effect or the level left; settings: time 6 day
[27] = Selectivity index, ratio of IC50 for cytotoxicity against African green monkey Vero cells to MIC for antitubercular activity against Mycobacterium tuberculosis H37Rv ATCC 27294; format: toxicity, cell-based; settings: read-out: Selectivity Index

In the case of `CCCCNc1nc(CC)nc2sc(C)cc12`, the IC50 [1] is reported as 2.7 µM.
`O=c1cc(-c2ccc(O)cc2)oc2ccc(O)c(CN3CCC3)c12` gave an MIC [2] of 0.45 µg/mL (≈ 1.39 µM).
`CCSc1nc(NC)c2ccc(F)c(F)c2n1` showed an MIC [3] of 0.02 µg/mL (≈ 0.0783 µM) and an Activity [4] of 0.5 log10CFU.
`O=C(NCCc1ccc(Cl)cc1)C1(c2cccs2)CCOCC1` gave an EC50 [5] of 6.4 µM and an MIC99 [6] of 19.3 µM (≈ 6.75 µg/mL).
In the case of `O=[N+]([O-])c1cc(C(F)(F)F)cc2c(=S)nc(N3CCC4(CC3)OCCO4)sc12`, the MIC [7] is reported as 0.02 µg/mL (≈ 0.0461 µM), the MIC [8] is reported as 32 µg/mL (≈ 73.8 µM) and the MIC (Mycobacterium avium [9]) is reported as under 0.05 µg/mL. It also gave an Activity [10] of 3.4 log10CFU.
`CCOC(=O)NC(=O)c1ccsc1NC(=O)c1nc2ccncc2s1` showed an MIC [11] of 0.089 µM (≈ 0.0335 µg/mL), an Activity [12] of 1.7 log10CFU and an Activity [13] of 2.3 log10CFU. The Activity [14] was over 1.7 log10CFU.
With `C=CCN1C(=O)NC(=O)/C(=C/NNC(=O)c2ccncc2)C1=O` the “inhibition zone (IZ)” value [15] was 20 mm, the Activity [16] was 1 log10CFU and the Activity [17] was 2.1 log10CFU. The Activity [18] was 0.6 log10CFU and the Activity [19] was 1.3 log10CFU.
`O=c1cc(-c2ccccc2O)oc2ccc(O)c(CN3CCC3)c12` gave an MIC [2] of 0.45 µg/mL (≈ 1.39 µM).
`COc1nc2ccc(Br)cc2cc1[C@@H](c1ccccc1)[C@@](O)(CCN(C)C)c1cccc2ccccc12` [BEDAQUILINE] gave an MIC [20] of 0.03 µg/mL (≈ 0.054 µM) and an MIC (Mycobacterium avium [21]) of 0.01 µg/mL (≈ 0.018 µM).
With `Cc1c(OCC(F)(F)F)ccnc1CSc1nc2ccccc2[nH]1` [LANSOPRAZOLE SULFIDE] the MIC90 [20] was 1.13 µM (≈ 0.399 µg/mL) and the MIC90 [22] was 1.21 µM (≈ 0.428 µg/mL).
Work on `CO[C@H]1CCC[C@H]2C1=C(C(=O)OC(C)OC(=O)OC1CCCCC1)N1C(=O)[C@H]([C@@H](C)O)[C@@H]21` (some centres undefined) [SANFETRINEM CILEXETIL] yielded an MIC [23] of 5 µM and an MIC [24] of 7.5 µM.
`CC(C)=CCC/C(C)=C/CNCCNC1C2CC3CC(C2)CC1C3` (centres undefined) [SQ109] gave an MIC [25] of 0.7 µM (≈ 0.231 µg/mL), an Activity [26] of 99% and a selectivity ratio [27] of 16.7.
